# From patent US11752125B2, “Anti-neuroinflammatory and protective compounds in Achillea fragrantissima” (THE STATE OF ISRAEL MINISTRY OF AGRICULTURE & RURAL …, priority 2013, dated 2023)
# Key:
# Assay type in all cases: cell-based, rat
# [1] = test system: IL-1β; assay: IL-1β secretion from LPS-stimulated microglial cells (ELISA); settings: LPS 100 ng/mL, 24 h
# Procedure: (§1) Cultures of primary rat microglial cells were prepared from cerebral cortices of 1-2 day-old neonatal Wistar rats as described. Microglial cells were seeded at 24-well plastic plates at 1×10^5/well in RPMI-1640 containing 2% FBS, 2 mM glutamine, 100 U/mL penicillin, 100 µg/mL streptomycin, 1 mM sodium pyruvate, and 50 μM β-mercaptoethanol. Cells were cultured for 36 h before treatments. The research was conducted in accordance with the NIH guide for the care and use of laboratory animals, and was approved by the Institutional Animal Care and Use Committee of The Volcani Center, Agricultural Research Organization (IL-135/07, approval date Apr. 11, 2007). All efforts were made to minimize animal suffering, and to reduce the number of animals used.
# For IL-1β measurements, 3.5×10^4 cells/well were plated on a 24-well tissue culture plate. After 24 h of incubation in DMEM containing 10% FBS, cells were stimulated with LPS (100 ng/mL) and treated with different concentrations of achillolide A. Conditioned media were collected twenty four hours later, and were tested with a rat IL1β ELISA kit (Novus Biologicals; CO, USA), according to the manufacturer's instructions.
# 2. Plate microglial cells (3.5×10^4 cells/well) on a 24-well tissue culture plate, in DMEM containing 10% FBS, 2 mM glutamine, 100 U/ml penicillin and 100 micrograms/mL streptomycin;
# Microglial cells were treated with different concentrations of TTF, followed by stimulation with LPS (100 ng/mL). After 24 h, conditioned media were collected and tested for cytokine levels by ELISA. Cell viability was determined using the crystal violet assay (FIG. 9C). Values represent the means±SEM (n=4 for each treatment).
# Microglial cells were treated with 20 μg/mL of achillolide A, followed by stimulation with LPS (4.5 ng/mL). After 5 h the levels of the indicated transcripts were measured by quantitative real-time PCR and the relative quantity (RQ) of the different transcripts were determined. […] The results are expressed as percentages relative to LPS-stimulated cells. […]
# [2] = test system: NO; assay: NO (nitrite) production by LPS-activated microglial cells (Griess); settings: LPS 4.5 ng/mL, 20 h
# Procedure: as §1
# For NO measurements, 1×10^5 microglial cells/well were plated in a 24-well tissue culture plate. Cells were stimulated with LPS (4.5 ng/mL) and concomitantly treated with achillolide A or a reference drug. NO levels in the culture medium were estimated with Griess reagent.
# 3. Activate microglial cells with lipopolysaccharide (LPS, 4.5 nanograms/mL);
# In FIG. 21 A, microglial cells were treated with different concentrations of achillolide A, dexamethasone or memantine (as reference drugs) and were concomitantly activated by LPS (4.5 ng/mL) for 20 h. Cell conditioned supernatants were collected, and the levels of NO were measured using Griess reaction. Cytotoxicity was measured using the LDH method (FIG. 21B). Values represent the mean±SEM (n=12 for each treatment). ** p<0.01; ***p<0.001 relative to cells that were treated to LPS only.
# [3] = test system: glutamate; assay: Glutamate secretion from LPS-activated microglial cells; settings: LPS 100 ng/mL, 20 h
# Procedure: For glutamate measurements, 3.5×10^4 cells/well were plated on a 24-well tissue culture plate. After 24 h of incubation in DMEM containing 10% FBS, cells were stimulated with LPS (100 ng/mL) and treated with different concentrations of achillolide A. Conditioned media were collected twenty hours later, and were tested for glutamate levels using a colorimetric enzymatic assay kit (glutamate assay kit, BioVision, CA, USA) according to the manufacturer's instructions. 7. Measure the levels of glutamate using a colorimetric enzymatic assay kit (glutamate assay kit, BioVision, CA, USA) according to the manufacturer's instructions. Microglial cells were treated with the indicated concentrations of achillolide A, followed by stimulation with LPS (100 ng/mL). After 20 h, conditioned media were collected and tested for glutamate levels by a commercial kit. Values represent the means±SEM (n=4 for each treatment). ** p<0.01; *** p<0.001, compared to LPS-stimulated cells.
# [4] = test system: microglial cells; assay: Cellular antioxidant activity (ABAP peroxyl radicals) in microglial cells; settings: ABAP 0.6 mM, dexamethasone at nanomolar concentrations
# Procedure: Intracellular ROS production was detected using the non-fluorescent cell permeating compound, 2′7′-dichlorofluorescein diacetate (DCF-DA). DCF-DA is hydrolyzed by intracellular esterases and then oxidized by ROS to a fluorescent compound 2′-7′-DCF. Peroxyl radicals are generated by thermolysis of 2,2′-Azobis(amidinopropane) (ABAP) at physiological temperature. ABAP decomposes at approximately 1.36×10^−6s^−1 at 37° C., producing at most 1×10^12 radicals/mL/s. Microglial cells (130,000 cells/well) were plated in DMEM containing 2% FBS, 8.4 mM HEPES, 2 mM glutamine, 100 U/mL penicillin and 100 μg/mL streptomycin, onto 24 wells plates. In order to measure the ability of achillolide A to enter the cells and prevent the formation of DCF by ABAP-generated peroxyl radicals, cells were incubated for 1 h with achillolide A. Then cells were preloaded with DCF-DA for 30 min, washed twice with PBS, and ABAP (0.6 mM final concentration) was then added. The fluorescence, which indicates ROS levels, was measured in a plate reader with excitation at 485 nm and emission at 520 nm.
# Cells were incubated for 1 h with different concentrations of achillolide A. Then, the cells were pre-loaded with DCF-DA for 30 min and washed. ABAP (0.6 mM) was added to the culture and ROS levels were measured at the indicated time points. […]
smiles,measurement,setting,value
"C[C@@H]1C[C@H]2[C@@H]3CCC4=CC(=O)C=C[C@]4(C)[C@@]3(F)[C@@H](O)C[C@]2(C)[C@@]1(O)C(=O)CO [dexamethasone, reference compound]",inhibition of IL-1β secretion,[1],85%
same,inhibition of NO produced by the activated cells,[2],90%
same,inhibition of the LPS-induced levels of secreted glutamate,[3],90%
same,inhibition of the ABAP-induced increase in ROS fluorescence,[4],75%
